Test results taken from ChEMBL document CHEMBL4043168, “The design and SAR of a novel series of 2-aminopyridine based LRRK2 inhibitors” (Bioorg Med Chem Lett, 2017).

How the values were obtained:
[1] = target: RAC-beta serine/threonine-protein kinase (Homo sapiens) (UniProt P31751); test: Inhibition of AKT2 labeling at ATP binding site (GTFGKVILVR) in human PBMC at 1 uM
[2] = target: Eukaryotic elongation factor 2 kinase (Homo sapiens) (UniProt O00418); test: Inhibition of eEF2K ATP binding site (YIKYNSNSGFVR) in human PBMC at 1 uM
Chain of Eukaryotic elongation factor 2 kinase (Homo sapiens) (O00418 whole entry): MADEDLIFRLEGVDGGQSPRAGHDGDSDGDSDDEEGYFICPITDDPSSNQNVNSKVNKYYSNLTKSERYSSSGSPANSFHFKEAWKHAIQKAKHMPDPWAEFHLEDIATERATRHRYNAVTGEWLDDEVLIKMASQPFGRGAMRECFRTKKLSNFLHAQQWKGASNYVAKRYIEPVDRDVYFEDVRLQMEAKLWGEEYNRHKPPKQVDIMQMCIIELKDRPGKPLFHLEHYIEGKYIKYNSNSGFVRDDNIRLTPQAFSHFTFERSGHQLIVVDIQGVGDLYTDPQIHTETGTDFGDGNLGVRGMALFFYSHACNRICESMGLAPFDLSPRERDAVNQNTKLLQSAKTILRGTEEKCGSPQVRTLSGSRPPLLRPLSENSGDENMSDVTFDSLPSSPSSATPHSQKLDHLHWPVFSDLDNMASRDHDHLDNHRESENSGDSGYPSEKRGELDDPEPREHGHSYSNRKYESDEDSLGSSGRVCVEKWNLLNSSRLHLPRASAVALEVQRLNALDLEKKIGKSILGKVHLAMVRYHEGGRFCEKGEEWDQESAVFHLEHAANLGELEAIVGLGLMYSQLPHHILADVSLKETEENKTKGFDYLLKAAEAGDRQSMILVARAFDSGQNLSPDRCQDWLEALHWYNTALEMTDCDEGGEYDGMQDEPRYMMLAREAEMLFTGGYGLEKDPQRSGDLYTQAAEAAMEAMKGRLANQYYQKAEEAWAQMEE

[3] = target: T1, Serine/threonine-protein kinase 3 (Homo sapiens) (UniProt Q13188); test: Inhibition of MST2 conserved Lys2 (DIKAGNILLNTEGHAK) in human PBMC at 1 uM
T1 sequence (whole entry): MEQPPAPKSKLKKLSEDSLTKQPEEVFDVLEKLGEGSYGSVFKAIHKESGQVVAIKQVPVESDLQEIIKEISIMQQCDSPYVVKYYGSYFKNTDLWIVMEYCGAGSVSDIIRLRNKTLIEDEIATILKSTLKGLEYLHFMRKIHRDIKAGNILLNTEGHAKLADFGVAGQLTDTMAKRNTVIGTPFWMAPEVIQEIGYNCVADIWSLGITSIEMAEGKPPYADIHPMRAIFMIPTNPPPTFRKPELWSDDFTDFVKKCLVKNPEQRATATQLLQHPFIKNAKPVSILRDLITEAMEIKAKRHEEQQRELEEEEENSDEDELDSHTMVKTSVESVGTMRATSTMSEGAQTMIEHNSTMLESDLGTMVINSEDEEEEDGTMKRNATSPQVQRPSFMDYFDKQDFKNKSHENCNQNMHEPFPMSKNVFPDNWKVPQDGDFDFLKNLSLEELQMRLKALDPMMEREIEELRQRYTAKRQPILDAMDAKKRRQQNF

[4] = target: Myosin light chain kinase, smooth muscle (Homo sapiens) (UniProt Q15746); test: Inhibition of smMLCK conserved Lys2 (QGIVHLDLKPENIMCVNK) in human PBMC at 1 uM
Chain of Myosin light chain kinase, smooth muscle (Homo sapiens) (Q15746 whole entry): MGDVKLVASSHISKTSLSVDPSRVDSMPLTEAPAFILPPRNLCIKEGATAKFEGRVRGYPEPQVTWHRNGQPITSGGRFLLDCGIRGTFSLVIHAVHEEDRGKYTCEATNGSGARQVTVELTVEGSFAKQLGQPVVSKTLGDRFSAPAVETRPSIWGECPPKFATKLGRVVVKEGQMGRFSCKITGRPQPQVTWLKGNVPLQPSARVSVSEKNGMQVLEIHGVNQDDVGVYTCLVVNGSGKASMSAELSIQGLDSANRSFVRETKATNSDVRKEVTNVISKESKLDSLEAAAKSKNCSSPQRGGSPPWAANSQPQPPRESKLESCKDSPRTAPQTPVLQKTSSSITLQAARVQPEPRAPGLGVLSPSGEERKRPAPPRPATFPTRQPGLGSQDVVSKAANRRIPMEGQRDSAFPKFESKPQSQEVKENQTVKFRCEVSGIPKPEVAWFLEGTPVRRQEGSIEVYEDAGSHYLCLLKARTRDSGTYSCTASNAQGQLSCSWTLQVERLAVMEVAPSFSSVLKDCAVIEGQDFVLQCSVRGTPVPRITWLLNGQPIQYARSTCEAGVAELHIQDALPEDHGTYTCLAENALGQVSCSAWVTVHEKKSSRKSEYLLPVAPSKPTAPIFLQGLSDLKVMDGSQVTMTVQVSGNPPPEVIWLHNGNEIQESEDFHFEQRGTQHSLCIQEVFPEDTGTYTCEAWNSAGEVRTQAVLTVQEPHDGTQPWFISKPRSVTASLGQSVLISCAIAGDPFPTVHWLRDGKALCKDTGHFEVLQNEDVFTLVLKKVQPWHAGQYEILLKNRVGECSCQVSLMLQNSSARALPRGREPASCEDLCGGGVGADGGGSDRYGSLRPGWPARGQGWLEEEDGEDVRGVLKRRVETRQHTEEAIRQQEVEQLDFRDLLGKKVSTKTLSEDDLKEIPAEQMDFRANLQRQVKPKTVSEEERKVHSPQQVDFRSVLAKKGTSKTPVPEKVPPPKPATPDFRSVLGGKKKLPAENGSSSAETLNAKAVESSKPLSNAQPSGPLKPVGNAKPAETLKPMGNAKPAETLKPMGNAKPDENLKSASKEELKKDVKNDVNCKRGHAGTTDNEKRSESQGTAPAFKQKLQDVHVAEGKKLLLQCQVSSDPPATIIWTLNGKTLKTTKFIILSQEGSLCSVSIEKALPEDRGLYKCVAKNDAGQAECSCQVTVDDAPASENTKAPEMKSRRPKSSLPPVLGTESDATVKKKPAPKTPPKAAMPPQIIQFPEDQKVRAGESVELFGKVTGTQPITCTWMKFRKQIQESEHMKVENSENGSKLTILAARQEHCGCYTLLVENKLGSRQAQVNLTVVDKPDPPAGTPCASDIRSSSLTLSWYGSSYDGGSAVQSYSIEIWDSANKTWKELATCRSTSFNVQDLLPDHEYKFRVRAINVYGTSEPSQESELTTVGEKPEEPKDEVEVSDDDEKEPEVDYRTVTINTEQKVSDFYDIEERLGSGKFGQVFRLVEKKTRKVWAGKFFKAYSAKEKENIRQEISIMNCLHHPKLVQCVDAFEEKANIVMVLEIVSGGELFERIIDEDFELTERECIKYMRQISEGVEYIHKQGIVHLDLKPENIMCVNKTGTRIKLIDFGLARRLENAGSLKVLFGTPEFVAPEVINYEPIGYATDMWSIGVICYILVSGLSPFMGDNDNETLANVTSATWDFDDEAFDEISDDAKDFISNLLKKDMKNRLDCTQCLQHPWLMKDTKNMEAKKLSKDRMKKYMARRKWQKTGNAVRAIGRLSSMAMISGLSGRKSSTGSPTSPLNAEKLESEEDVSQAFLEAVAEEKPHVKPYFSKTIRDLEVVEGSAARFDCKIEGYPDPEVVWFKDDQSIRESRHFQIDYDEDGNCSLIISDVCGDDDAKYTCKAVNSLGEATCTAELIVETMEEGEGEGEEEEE

[5] = target: Serine/threonine-protein kinase WNK4 (Homo sapiens) (UniProt Q96J92); test: Inhibition of Wnk4 activation Loop (IGDLGLATLKR) in human PBMC at 1 uM
Chain of Serine/threonine-protein kinase WNK4 (Homo sapiens) (Q96J92 whole entry): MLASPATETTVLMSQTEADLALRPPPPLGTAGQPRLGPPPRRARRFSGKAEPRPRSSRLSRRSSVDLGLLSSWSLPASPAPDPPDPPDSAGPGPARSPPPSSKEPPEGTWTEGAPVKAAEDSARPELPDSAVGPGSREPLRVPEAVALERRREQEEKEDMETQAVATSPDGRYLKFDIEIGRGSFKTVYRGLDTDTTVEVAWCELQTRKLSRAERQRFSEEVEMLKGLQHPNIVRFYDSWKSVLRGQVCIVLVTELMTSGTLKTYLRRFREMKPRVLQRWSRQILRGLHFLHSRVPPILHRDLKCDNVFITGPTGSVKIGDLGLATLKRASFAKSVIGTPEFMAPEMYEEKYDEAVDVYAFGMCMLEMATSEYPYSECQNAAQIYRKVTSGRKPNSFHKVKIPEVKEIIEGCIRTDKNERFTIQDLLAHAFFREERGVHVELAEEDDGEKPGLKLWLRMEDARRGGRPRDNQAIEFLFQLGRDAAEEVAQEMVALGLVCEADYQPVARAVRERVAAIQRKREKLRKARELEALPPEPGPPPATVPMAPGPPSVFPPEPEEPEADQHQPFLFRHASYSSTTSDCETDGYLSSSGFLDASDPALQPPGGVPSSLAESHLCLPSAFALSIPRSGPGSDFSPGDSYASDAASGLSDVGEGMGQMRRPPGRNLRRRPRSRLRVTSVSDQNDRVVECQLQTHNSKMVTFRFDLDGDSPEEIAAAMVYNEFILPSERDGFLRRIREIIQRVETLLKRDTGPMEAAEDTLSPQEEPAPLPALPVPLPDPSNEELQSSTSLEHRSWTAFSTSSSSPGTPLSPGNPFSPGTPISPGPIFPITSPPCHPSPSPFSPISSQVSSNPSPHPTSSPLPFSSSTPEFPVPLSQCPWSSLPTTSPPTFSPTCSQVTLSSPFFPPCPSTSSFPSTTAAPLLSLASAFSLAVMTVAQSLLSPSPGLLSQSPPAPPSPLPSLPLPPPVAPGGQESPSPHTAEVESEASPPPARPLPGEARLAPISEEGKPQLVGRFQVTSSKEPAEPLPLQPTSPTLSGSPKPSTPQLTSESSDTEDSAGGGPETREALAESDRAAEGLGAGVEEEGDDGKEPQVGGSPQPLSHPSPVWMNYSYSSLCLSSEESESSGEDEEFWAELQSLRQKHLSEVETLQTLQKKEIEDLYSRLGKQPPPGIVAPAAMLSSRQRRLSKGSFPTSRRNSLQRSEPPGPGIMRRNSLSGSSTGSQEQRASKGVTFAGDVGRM

[6] = target: T2, Mitogen-activated protein kinase kinase kinase 5 (Homo sapiens) (UniProt Q99683); test: Inhibition of MAP3K5 conserved Lys1 (IAIKEIPER) in human PBMC at 0.1 uM
T2 sequence (whole entry): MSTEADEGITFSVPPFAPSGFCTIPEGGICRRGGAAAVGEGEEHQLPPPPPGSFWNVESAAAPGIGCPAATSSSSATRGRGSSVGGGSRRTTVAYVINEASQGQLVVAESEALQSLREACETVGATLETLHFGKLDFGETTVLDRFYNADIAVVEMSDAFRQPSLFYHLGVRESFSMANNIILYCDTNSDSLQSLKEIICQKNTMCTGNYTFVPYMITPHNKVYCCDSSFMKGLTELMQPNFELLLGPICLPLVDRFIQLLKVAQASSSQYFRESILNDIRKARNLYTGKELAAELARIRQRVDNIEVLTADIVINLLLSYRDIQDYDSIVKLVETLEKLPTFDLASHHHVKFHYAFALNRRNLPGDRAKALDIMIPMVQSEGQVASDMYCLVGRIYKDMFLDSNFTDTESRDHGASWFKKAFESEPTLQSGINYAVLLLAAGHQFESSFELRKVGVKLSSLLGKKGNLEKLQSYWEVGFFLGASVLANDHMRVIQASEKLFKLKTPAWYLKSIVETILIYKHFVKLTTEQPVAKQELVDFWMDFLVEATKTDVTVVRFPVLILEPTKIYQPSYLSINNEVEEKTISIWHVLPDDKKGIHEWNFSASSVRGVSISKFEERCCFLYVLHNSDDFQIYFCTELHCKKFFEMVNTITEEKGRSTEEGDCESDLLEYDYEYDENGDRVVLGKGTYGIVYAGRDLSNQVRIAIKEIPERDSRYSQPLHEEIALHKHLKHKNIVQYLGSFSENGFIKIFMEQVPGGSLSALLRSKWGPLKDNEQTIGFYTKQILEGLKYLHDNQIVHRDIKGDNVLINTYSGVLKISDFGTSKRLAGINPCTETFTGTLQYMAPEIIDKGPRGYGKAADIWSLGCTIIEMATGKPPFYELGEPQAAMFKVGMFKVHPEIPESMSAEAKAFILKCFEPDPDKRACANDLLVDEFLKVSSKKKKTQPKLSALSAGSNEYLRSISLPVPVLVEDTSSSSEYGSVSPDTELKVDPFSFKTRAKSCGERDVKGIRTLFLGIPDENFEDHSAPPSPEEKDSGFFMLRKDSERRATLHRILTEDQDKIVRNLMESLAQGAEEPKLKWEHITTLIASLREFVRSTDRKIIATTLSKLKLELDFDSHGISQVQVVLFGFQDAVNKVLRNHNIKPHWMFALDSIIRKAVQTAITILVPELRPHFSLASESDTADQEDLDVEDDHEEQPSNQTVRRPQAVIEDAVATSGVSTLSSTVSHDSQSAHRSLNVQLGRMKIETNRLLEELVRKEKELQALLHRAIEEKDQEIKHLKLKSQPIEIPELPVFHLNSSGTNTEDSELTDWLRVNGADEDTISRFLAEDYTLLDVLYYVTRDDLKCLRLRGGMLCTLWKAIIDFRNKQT

[7] = target: T3, Serine/threonine-protein kinase 4 (Homo sapiens) (UniProt Q13043); test: Inhibition of MST1 conserved Lys2 (DIKAGNILLNTEGHAK) in human PBMC at 0.1 uM
T3 sequence (whole entry): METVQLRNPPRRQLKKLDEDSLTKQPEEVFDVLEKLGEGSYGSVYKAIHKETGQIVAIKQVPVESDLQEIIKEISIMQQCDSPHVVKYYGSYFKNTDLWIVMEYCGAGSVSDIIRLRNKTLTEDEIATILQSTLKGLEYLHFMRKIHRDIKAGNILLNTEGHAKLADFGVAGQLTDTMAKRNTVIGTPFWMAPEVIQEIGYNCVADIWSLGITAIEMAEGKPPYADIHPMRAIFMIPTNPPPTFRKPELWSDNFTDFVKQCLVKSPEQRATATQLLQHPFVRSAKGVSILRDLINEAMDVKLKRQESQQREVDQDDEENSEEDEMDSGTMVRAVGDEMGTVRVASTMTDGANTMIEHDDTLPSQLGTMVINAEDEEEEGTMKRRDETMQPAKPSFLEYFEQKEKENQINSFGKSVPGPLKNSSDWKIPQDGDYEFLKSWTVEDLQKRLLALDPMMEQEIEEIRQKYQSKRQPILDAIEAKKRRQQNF

[8] = target: Mitogen-activated protein kinase 12 (Homo sapiens) (UniProt P53778); test: Inhibition of p38g conserved Lys2 (DLKPGNLAVNEDCELK) in human PBMC at 0.1 uM
Chain of Mitogen-activated protein kinase 12 (Homo sapiens) (P53778 whole entry): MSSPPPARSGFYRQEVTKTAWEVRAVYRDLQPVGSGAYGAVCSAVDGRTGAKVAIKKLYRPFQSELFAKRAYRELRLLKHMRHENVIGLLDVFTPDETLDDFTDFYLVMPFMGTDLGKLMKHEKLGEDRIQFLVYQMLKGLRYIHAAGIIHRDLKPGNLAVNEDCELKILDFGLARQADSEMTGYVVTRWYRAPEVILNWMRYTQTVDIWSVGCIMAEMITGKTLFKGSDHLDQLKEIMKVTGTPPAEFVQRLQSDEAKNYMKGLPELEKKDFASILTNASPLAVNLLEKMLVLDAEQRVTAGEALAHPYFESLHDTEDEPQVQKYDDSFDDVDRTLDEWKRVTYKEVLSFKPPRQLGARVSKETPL

[9] = target: Ribosomal protein S6 kinase alpha-3 (Homo sapiens) (UniProt P51812); test: Inhibition of RSK2 conserved Lys2 (DLKPENILLDEEGHIK) in human PBMC at 0.1 uM

Chain of RAC-beta serine/threonine-protein kinase (Homo sapiens) (P31751 whole entry): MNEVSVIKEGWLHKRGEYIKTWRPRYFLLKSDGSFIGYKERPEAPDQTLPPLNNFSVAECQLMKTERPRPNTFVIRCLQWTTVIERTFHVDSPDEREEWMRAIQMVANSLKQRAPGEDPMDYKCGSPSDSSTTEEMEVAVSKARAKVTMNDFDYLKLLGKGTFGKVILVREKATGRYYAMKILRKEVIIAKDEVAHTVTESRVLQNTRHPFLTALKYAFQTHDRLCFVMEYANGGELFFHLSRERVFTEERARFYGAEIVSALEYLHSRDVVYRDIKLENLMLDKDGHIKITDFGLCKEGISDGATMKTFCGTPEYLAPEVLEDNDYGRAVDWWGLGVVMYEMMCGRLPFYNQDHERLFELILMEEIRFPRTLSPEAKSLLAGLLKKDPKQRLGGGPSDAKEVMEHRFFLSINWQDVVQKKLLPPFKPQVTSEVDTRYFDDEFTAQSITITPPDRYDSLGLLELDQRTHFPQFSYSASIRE

SMILES: CC(C)n1cc(-c2cc(-c3ccc(CN4CCOCC4)cc3)cnc2N)nn1
- inhibition [1]: 20.5%
- inhibition [2]: -6.7%
- inhibition [3]: 0%
- inhibition [4]: 3.2%
- inhibition [5]: 21.9%
- inhibition [6]: -0.5%
- inhibition [7]: 1.3%
- inhibition [8]: 26.4%
- inhibition [9]: 11.8%
